This series deals with in vitro micronucleus assay, mammalian cells. Description: In vitro micronucleus assay, summary data.

The record followed here is PubChem BioAssay AID2202557 (NIEHS Division of Translational Toxicology (DTT)).

The source made the active and inactive calls. How the calls were made is not given here.

On to `NCP(=O)(O)O`, for which the outcome is “inactive; negative”.
Next, `CCCCCCOc1ccc(O)cc1`: “active; positive”; `CCc1cccc(C)c1N(C(=O)CCl)C(C)COC` (stereo unspecified): “active; positive”.
`[Cl][In]([Cl])[Cl]`: the outcome is “active; positive”.
In the case of `CCOC(=O)C1=C[C@]2(CC)CCCN3CCc4c(n1c1ccccc41)[C@@H]32`, the outcome is “active; positive”.
Next, `c1cc[n+]2c(c1)-c1cccc[n+]1CC2`: “active; positive”.
